Reference: patent publication US8357694B2, “Substituted 5,6-dihydro-6-phenylbenzo[F]isoquinolin-2-amine compounds” (ArQule, Inc., priority 2008, dated 2013)
Counter-ions that a name gives are not always drawn.

System: not given
Experiment: not given
Settings: not given

First: NCCc1ccc(Nc2ncc3c(n2)-c2ccccc2C(c2cccc(Br)c2)C3)cc1 (stereo not drawn) [Example 34, N-(4-(2-aminoethyl)phenyl)-6-(3-bromophenyl)-5,6-dihydrobenzo[h]quinazolin-2-amine]
Second: CCN(CCc1ccc(Nc2ncc3c(n2)-c2ccccc2C(c2cccc(Br)c2)C3)cc1)C(C)C (stereo not drawn) [Example 40, 6-(3-bromophenyl)-N-(4-(2-(ethyl(isopropyl)amino)ethyl)phenyl)-5,6-dihydrobenzo[h]quinazolin-2-amine]
The melting point of the first is higher: 115 to 117 °C for the first, 67 to 69 °C for the second.

First: Brc1cccc(C2Cc3cnc(Nc4ccc(CCNc5ccccc5)cc4)nc3-c3ccccc32)c1 (stereo not drawn) [Example 35, 6-(3-bromophenyl)-N-(4-(2-(phenylamino)ethyl)phenyl)-5,6-dihydrobenzo[h]quinazolin-2-amine]
Second: Brc1cccc(C2Cc3cnc(Nc4ccc(CCNCc5ccccc5)cc4)nc3-c3ccccc32)c1 (stereo not drawn) [Example 46, N-(4-(2-(benzylamino)ethyl)phenyl)-6-(3-bromophenyl)-5,6-dihydrobenzo[h]quinazolin-2-amine]
The melting point of the first is lower: 92 to 94 °C for the first, 98 to 100 °C for the second.

First: CN(CCc1ccc(Nc2ncc3c(n2)-c2ccccc2C(c2cccc(Br)c2)C3)cc1)CCc1ccccn1 (stereo not drawn) [Example 36, 6-(3-bromophenyl)-N-(4-(2-(methyl(2-(pyridin-2-yl)ethyl)amino)ethyl)phenyl)-5,6-dihydrobenzo[h]quinazolin-2-amine]
Second: CN(CCc1ccccc1)CCc1ccc(Nc2ncc3c(n2)-c2ccccc2C(c2cccc(Br)c2)C3)cc1 (stereo not drawn) [Example 37, 6-(3-bromophenyl)-N-(4-(2-(methyl(phenethyl)amino)ethyl)phenyl)-5,6-dihydrobenzo[h]quinazolin-2-amine]
The melting point of the first is lower: 75 to 77 °C for the first, 80 to 82 °C for the second.

Compared with CN(C)CCN(CCc1ccc(Nc2ncc3c(n2)-c2ccccc2C(c2cccc(Br)c2)C3)cc1)Cc1ccccc1 (stereo not drawn) [Example 38, N^1-benzyl-N-1-(4-(6-(3-bromophenyl)-5,6-dihydrobenzo[h]quinazolin-2-ylamino)phenethyl)-N^2,N^2-dimethylethane-1,2-diamine], CC(O)CN(CCc1ccc(Nc2ncc3c(n2)-c2ccccc2C(c2cccc(Br)c2)C3)cc1)Cc1ccccc1 (stereo not drawn) [Example 39, 1-(benzyl(4-(6-(3-bromophenyl)-5,6-dihydrobenzo[h]quinazolin-2-ylamino)phenethyl)amino)propan-2-ol] is higher in melting point: 68 to 70 °C for the first, 90 to 92 °C for the second.

Compared with CCN(CCc1ccc(Nc2ncc3c(n2)-c2ccccc2C(c2cccc(Br)c2)C3)cc1)Cc1ccncc1 (stereo not drawn) [Example 41, 6-(3-bromophenyl)-N-(4-(2-(ethyl(pyridin-4-ylmethyl)amino)ethyl)phenyl)-5,6-dihydrobenzo[h]quinazolin-2-amine], CN(C)CCNCCc1ccc(Nc2ncc3c(n2)-c2ccccc2C(c2cccc(Br)c2)C3)cc1 (stereo not drawn) [Example 44, N^1-(4-(6-(3-bromophenyl)-5,6-dihydrobenzo[h]quinazolin-2-ylamino)phenethyl)-N^2,N^2-dimethylethane-1,2-diamine] is lower in melting point: 88 to 90 °C for the first, 75 to 77 °C for the second.

First: COCCN(CCOC)CCc1ccc(Nc2ncc3c(n2)-c2ccccc2C(c2cccc(Br)c2)C3)cc1 (stereo not drawn) [Example 42, N-(4-(2-(bis(2-methoxyethyl)amino)ethyl)phenyl)-6-(3-bromophenyl)-5,6-dihydrobenzo[h]quinazolin-2-amine]
Second: Brc1cccc(C2Cc3cnc(Nc4ccc(CCNCCN5CCCC5)cc4)nc3-c3ccccc32)c1 (stereo not drawn) [Example 47, 6-(3-bromophenyl)-N-(4-(2-(2-(pyrrolidin-1-yl)ethylamino)ethyl)phenyl)-5,6-dihydrobenzo[h]quinazolin-2-amine]
The melting point of the first is lower: 58 to 60 °C for the first, 83 to 85 °C for the second.

First: Brc1cccc(C2Cc3cnc(Nc4ccc(CCN5CCN(c6ccccc6)CC5)cc4)nc3-c3ccccc32)c1 (stereo not drawn) [Example 43, 6-(3-bromophenyl)-N-(4-(2-(4-phenylpiperazin-1-yl)ethyl)phenyl)-5,6-dihydrobenzo[h]quinazolin-2-amine]
Second: COCCN1CCN(CCc2ccc(Nc3ncc4c(n3)-c3ccccc3C(c3ccccc3)C4)cc2)CC1 (stereo not drawn) [Example 65, N-(4-(2-(4-(2-methoxyethyl)piperazin-1-yl)ethyl)phenyl)-6-phenyl-5,6-dihydrobenzo[h]quinazolin-2-amine]
The melting point of the first is higher: 113 to 115 °C for the first, 52 to 54 °C for the second.

First: Brc1cccc(C2Cc3cnc(Nc4ccc(CCNCCN5CCOCC5)cc4)nc3-c3ccccc32)c1 (stereo not drawn) [Example 45, 6-(3-bromophenyl)-N-(4-(2-(2-morpholinoethylamino)ethyl)phenyl)-5,6-dihydrobenzo[h]quinazolin-2-amine]
Second: Clc1ccc(C2Cc3cnc(Nc4ccc(CCN5CCOCC5)cc4)nc3-c3ccccc32)cc1Cl (stereo not drawn) [Example 50, 6-(3,4-dichlorophenyl)-N-(4-(2-morpholinoethyl)phenyl)-5,6-dihydrobenzo[h]quinazolin-2-amine]
The melting point of the first is lower: 85 to 87 °C for the first, 180 to 181 °C for the second.

First: Clc1ccc([C@H]2Cc3cnc(Nc4ccc(CCN5CCOCC5)cc4)nc3-c3ccccc32)cc1Cl [Example 51, (R)-6-(3,4-dichlorophenyl)-N-(4-(2-morpholinoethyl)phenyl)-5,6-dihydrobenzo[h]quinazolin-2-amine]
Second: CN1CCN(CCc2ccc(Nc3ncc4c(n3)-c3ccccc3C(c3ccc(Cl)c(Cl)c3)C4)cc2)CC1 (stereo not drawn) [Example 52, 6-(3,4-dichlorophenyl)-N-(4-(2-(4-methylpiperazin-1-yl)ethyl)phenyl)-5,6-dihydrobenzo[h]quinazolin-2-amine]
The melting point of the first is higher: 166 to 167 °C for the first, 119 to 121 °C for the second.

First: COCCN1CCN(CCc2ccc(Nc3ncc4c(n3)-c3ccccc3C(c3ccc(F)c(F)c3)C4)cc2)CC1 (stereo not drawn) [Example 59, 6-(3,4-difluorophenyl)-N-(4-(2-(4-(2-methoxyethyl)piperazin-1-yl)ethyl)phenyl)-5,6-dihydrobenzo[h]quinazolin-2-amine]
Second: COCCN1CCN(CCc2ccc(Nc3ncc4c(n3)-c3ccccc3C(c3ccccc3C(F)(F)F)C4)cc2)CC1 (stereo not drawn) [Example 69, N-(4-(2-(4-(2-methoxyethyl)piperazin-1-yl)ethyl)phenyl)-6-(2-(trifluoromethyl)phenyl)-5,6-dihydrobenzo[h]quinazolin-2-amine]
The melting point of the first is higher: 267 to 270 °C for the first, 139 to 140 °C for the second.

First: CCCCN(C)CCc1ccc(Nc2ncc3c(n2)-c2ccccc2C(c2ccccc2C(F)(F)F)C3)cc1 (stereo not drawn) [Example 68, N-(4-(2-(butyl(methyl)amino)ethyl)phenyl)-6-(2-(trifluoromethyl)phenyl)-5,6-dihydrobenzo[h]quinazolin-2-amine]
Second: COCCNCCc1ccc(Nc2ncc3c(n2)-c2ccccc2C(c2ccccc2C(F)(F)F)C3)cc1 (stereo not drawn) [Example 70, N-(4-(2-(2-methoxyethylamino)ethyl)phenyl)-6-(2-(trifluoromethyl)phenyl)-5,6-dihydrobenzo[h]quinazolin-2-amine]
The melting point of the first is higher: 80 to 82 °C for the first, 61 to 62 °C for the second.

First: CN1CCN(CCc2ccc(Nc3ncc4c(n3)-c3ccccc3C(c3ccccc3C(F)(F)F)C4)cc2)CC1 (stereo not drawn) [Example 71, N-(4-(2-(4-methylpiperazin-1-yl)ethyl)phenyl)-6-(2-(trifluoromethyl)phenyl)-5,6 dihydrobenzo[h]quinazolin-2-amine]
Second: CC(C)(C)OC(=O)N1CCN(CCc2ccc(Nc3ncc4c(n3)-c3ccccc3C(c3ccccc3C(F)(F)F)C4)cc2)CC1 (stereo not drawn) [Example 72, tert-butyl 4-(4-(6-(2-(trifluoromethyl)phenyl)-5,6-dihydrobenzo[h]quinazolin-2-ylamino)phenethyl)piperazine-1-carboxylate]
The melting point of the first is lower: 157 to 158 °C for the first, 234 to 235 °C for the second.

First: CCCCN(C)CCc1ccc(Nc2ncc3c(n2)-c2ccccc2[C@H](c2ccc(F)cc2)C3)cc1 [Example 99, (S)—N-(4-(2-(butyl(methyl)amino)ethyl)phenyl)-6-(4-fluorophenyl)-5,6-dihydrobenzo[h]quinazolin-2-amine]
Second: CN(CCc1ccc(Nc2ncc3c(n2)-c2ccccc2[C@H](c2ccc(F)cc2)C3)cc1)C1CCCCC1 [Example 102, (S)—N-(4-(2-(cyclohexyl(methyl)amino)ethyl)phenyl)-6-(4-fluorophenyl)-5,6-dihydrobenzo[h]quinazolin-2-amine]
The melting point of the first is higher: 164 to 166 °C for the first, 160 to 162 °C for the second.

First: N#Cc1c(N)ncc2c1-c1ccccc1C(c1ccc(Cl)cc1Cl)C2 (stereo not drawn) [Example 151, 2-amino-6-(2,4-dichlorophenyl)-5,6-dihydrobenzo[f]isoquinoline-1-carbonitrile]
Second: Nc1cc2c(cn1)CC(c1ccc(Cl)cc1Cl)c1ccccc1-2 (stereo not drawn) [Example 156, 6-(2,4-dichlorophenyl)-5,6-dihydrobenzo[f]isoquinolin-2-amine]
The melting point of the first is higher: 282 to 284 °C for the first, 189 to 193 °C for the second.

Compared with OCCc1cc(Nc2ncc3c(n2)-c2ccccc2[C@H](c2ccccc2F)C3)ccc1F [Example 169, (R)-2-(2-fluoro-5-(6-(2-fluorophenyl)-5,6-dihydrobenzo[h]quinazolin-2-ylamino)phenyl)ethano], CS(=O)(=O)OCCc1cc(Nc2ncc3c(n2)-c2ccccc2[C@H](c2ccccc2F)C3)ccc1F [Example 170, (R)-2-fluoro-5-(6-(2-fluorophenyl)-5,6-dihydrobenzo[h]quinazolin-2-ylamino)phenethyl methanesulfonate] is lower in melting point: 140 to 141 °C for the first, 99 to 100 °C for the second.

First: OCCc1ccccc1Nc1ncc2c(n1)-c1ccccc1[C@H](c1ccccc1F)C2 [Example 177, (R)-2-(2-(6-(2-fluorophenyl)-5,6-dihydrobenzo[h]quinazolin-2-ylamino)phenyl)ethanol]
Second: N#Cc1c(NCCCN2CCCC2)ncc2c1-c1ccccc1C(c1ccc(Cl)c(Cl)c1)C2 (stereo not drawn) [Example 180, 6-(3,4-dichlorophenyl)-2-(3-(pyrrolidin-1-yl)propylamino)-5,6-dihydrobenzo[f]isoquinoline-1-carbonitrile]
The melting point of the first is higher: 162 to 163 °C for the first, 104 to 110 °C for the second.

System: SNU-16
Experiment: MTS assay, SNU-16
Type: cell-based
Settings: Homo sapiens, SNU-16, SNU-16; read-out: MTS cell kill data (IC50-μM) SNU-16
Experimental: Cells were maintained at 37° C., 5% CO2 in DMEM media supplemented with 1% fetal bovine serum, penicillin/streptomycin and fungizone (Invitrogen). Cells were seeded into 96-well tissue culture plates at 3000 per well and cultured at 37° C. for 18 hours. Test compounds were dissolved and diluted to 300× in DMSO then diluted 1:40 in DMEM.

Work on Brc1cccc([C@@H]2Cc3cnc(Nc4ccc(CCN5CCCCC5)cc4)nc3-c3ccccc32)c1 [Example 78, (S)-6-(3-bromophenyl)-N-(4-(2-(piperidin-1-yl)ethyl)phenyl)-5,6-dihydrobenzo[h]quinazolin-2-amine hydrochloride] yielded an IC50 of 4.85 µM.
